Target: T1, mTAAR7f (Mus musculus, UniProt Q5QD08)
T1 construct: gene Taar7f; full length; N-terminal signal peptide, twin-strep and SNAP-tag, C-terminal nanoluc; BRET partner NES-Venus-mini-Gs (reporter)
T1 sequence (Q5QD08 1-358): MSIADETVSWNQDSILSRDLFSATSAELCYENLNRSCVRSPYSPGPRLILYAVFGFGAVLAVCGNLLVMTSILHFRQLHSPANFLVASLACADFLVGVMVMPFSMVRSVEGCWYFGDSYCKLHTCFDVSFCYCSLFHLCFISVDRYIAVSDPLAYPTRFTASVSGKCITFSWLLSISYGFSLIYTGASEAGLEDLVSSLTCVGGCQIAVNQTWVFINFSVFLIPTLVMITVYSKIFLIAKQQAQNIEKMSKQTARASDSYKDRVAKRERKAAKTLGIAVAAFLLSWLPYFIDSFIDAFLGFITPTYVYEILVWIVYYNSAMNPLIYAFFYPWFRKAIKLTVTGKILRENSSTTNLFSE
Test: BRET mini-Gs recruitment (nanoluc receptor, NES-Venus-mGs), concentration-response
Format: cell-based
Source text: BRET mini-Gs recruitment (nanoluc receptor, NES-Venus-mGs), concentration-response on mTAAR7f | BRET ratios measured for increasing concentrations of the agonist DMCHA for the wild-type mTAAR7f

With `CN(C)C1CCCCC1` [N,N-dimethylcyclohexylamine] the EC50 was 8.51 µM.

— paper PMC11364543, “Molecular recognition of an odorant by the murine trace amine-associated receptor TAAR7f” (Nature Communications, 2024)
